Experiments:
P. aeruginosa [1] = test: RB-mediated aPDI in vitro with/without KI; format: cell-based, Pseudomonas aeruginosa ATCC 19660 (Xen 5P); conditions: no KI
Procedure: (§1) A source of green light was configured from a white lamp and a band-pass filter probe (wavelength, 540±15 nm Lumacare, Newport Beach, Calif., USA) to deliver light over a spot of 4 cm in diameter to simultaneously irradiate four wells of a 24-well plate in vitro or the whole abrasion in vive at an irradiance of 100 mW/cm^2. Light power was measured with a power meter (model DMM 199 with a 201 standard head; Coherent, Santa Clara, Calif., USA).
(§2) The following microbial strains were used: the Gram-positive bacterium methicillin-resistant Staphylococcus aureus (MRSA) USA 300, Gram-negative bacteria Escherichia coli K-12 (ATCC 33780) and Pseurdomonas aeruginosa ATCC 19660 (Xen 5P), and strain CEC 749 of the luciferase-expressing fungal yeast Candida albicans. A colony of bacteria or fungal yeast was suspended in 20 ml of brain heart infusion (BHI) broth for bacteria or yeast extract-peptone-dextrose (YPD) for C. albicans and grown overnight in a shaker incubator (New Brunswick Scientific, Edison, N.J.) at 120 rpm under aerobic conditions at 37° C. for bacteria and at 30° C. for C. albicans. For bacteria, an aliquot of 1 ml from an overnight bacterial suspension was refreshed in fresh BHI for 2 to 3 h at 37° C. to mid-log phase. […] The C. albicans cell number was assessed with a hemocytometer and was generally between 10^7 and 10^8 cells/ml. […]

P. aeruginosa [2] = test: In vivo PDT of skin abrasions infected with bioluminescent P. aeruginosa; design: species or system BALB/c mice; conditions: RB 500 μM, up to 20 J/cm^2
Procedure: The Pseudomonas aerugenosa strain used in this work was ATCC 19660 (Xen 5P). Bacteria were routinely grown in BHI with aeration in an orbital incubator at 100 rpm and 37° C. overnight to stationary phase. An aliquot of this suspension was then refreshed in fresh BHI to mid-log phase. Cell numbers were estimated by measuring the OD at 600 nm (OD of 0.6=10^8 CFU cells/ml). The bacterial suspension was centrifuged, washed, and resuspended in PBS, and the suspension was diluted 10-fold for the in vivo experiments.
An IVIS Lumina series III in vivo imaging system (PerkinElmer, Inc., Waltham, Mass., USA) was applied for bioluminescence imaging on a daily basis until the disappearance of the infection by bioluminescence imaging. Using the photon counting mode, an image can be obtained by detecting and integrating individual photons emitted by the bacterial cells. Prior to PDT and imaging, mice were anesthetized by intraperitoneal (i.p.) injection of a ketamine-xylazine cocktail. […] The signal from the bioluminescence image was quantified as the region of interest (ROI), with absolute calibrated data being given as the number of photons/(s cm^2 sr), using the IVIS software. […]
Mice were divided into four groups of 5 mice each. […] Then, the wounds were irradiated with green light at a fluence of up to 20 J/cm^2, and luminescence imaging was performed after irradiation.

C. albicans = test: RB-mediated aPDI in vitro with/without KI; format: cell-based, Candida albicans CEC 749
Procedure: as §1, §2

MRSA = test: RB-mediated aPDI in vitro with/without KI; format: cell-based, methicillin-resistant Staphylococcus aureus (MRSA) USA 300
Procedure: as §1
(§3) The following microbial strains were used: the Gram-positive bacterium methicillin-resistant Staphylococcus aureus (MRSA) USA 300, Gram-negative bacteria Escherichia coli K-12 (ATCC 33780) and Pseurdomonas aeruginosa ATCC 19660 (Xen 5P), and strain CEC 749 of the luciferase-expressing fungal yeast Candida albicans. A colony of bacteria or fungal yeast was suspended in 20 ml of brain heart infusion (BHI) broth for bacteria or yeast extract-peptone-dextrose (YPD) for C. albicans and grown overnight in a shaker incubator (New Brunswick Scientific, Edison, N.J.) at 120 rpm under aerobic conditions at 37° C. for bacteria and at 30° C. for C. albicans. For bacteria, an aliquot of 1 ml from an overnight bacterial suspension was refreshed in fresh BHI for 2 to 3 h at 37° C. to mid-log phase. The cell concentration was estimated by measuring the optical density (OD) at 600 nm (OD of 0.6=10^8 cells/ml). The C. albicans cell number was assessed with a hemocytometer and was generally between 10^7 and 10^8 cells/ml.
(§4) Two types of in vitro aPDI experiments were carried out. The first experiments used cells with fixed RB and KI concentrations while varying the dose of irradiating light. The second type of experiments used cells with a fixed RB concentration and a fixed light dose while varying the KI concentration. Here, comparison was performed based on the order of addition of the components and the effect of centrifugation. […]

E. coli [3] = test: RB-mediated aPDI in vitro with/without KI; format: cell-based, Escherichia coli K-12 (ATCC 33780); conditions: for killing: 10 μM RB
Procedure: as §1, §3, §4

E. coli [4] = test: Toxicity of KI alone on bacteria; format: cell-based, Escherichia coli K12 (ATCC 33780); conditions: KI 0-50 mM, 10 minutes, dark control and 5 J/cm^2 red light
Procedure: (§5) Since there existed a possibility that KI itself could exert an antimicrobial effect, to eliminate or at least account for the direct influence of the KI on the bacteria and to ensure that the final efficiency of the PDI process is attributed to the potentiation of the MB with the KI, additional qualitative performance evaluation tests were performed. Specifically, the bacteria cells (10^8 CFU; 500 uL) were incubated with different concentrations of KI (0-50 mM) for 10 minutes in order to verify the toxicity of KI. An aliquot of 100 μl from each sample, was used as dark control, another (100 μl) was irradiated with 5 J/cm^2 dose of light (660 nm light) and then placed in a new 96 well plate. The aliquots were serially diluted as before. The results presented in FIGS. 2A, 2B (for S. aureus and E. coli) verified that KI itself was not responsible for the increased potency of the PDI treatment observed in the experiments with the MCPPS.

S. aureus = test: Toxicity of KI alone on bacteria; format: cell-based, Staphylococcus aureus (NCTC 8325); conditions: KI 0-50 mM, 10 minutes, dark control and 5 J/cm^2 red light
Procedure: as §5

[5] = test system: mammalian dermal skin fibroblasts; test: Effect of KI in vitro on mammalian cells; format: cell-based; conditions: 3 hours, KI 0.001-10 mM
[6] = Time-resolved singlet oxygen detection (1,270-nm phosphorescence); format: physicochemical
Procedure: The interaction of iodide with singlet oxygen photogenerated by RB was examined directly by measuring the lifetime of singlet oxygen at different concentrations of KI and indirectly by monitoring the effect of increasing concentrations of iodide on oxygen uptake induced by irradiation of the RB solution with green light. Time-resolved singlet oxygen detection was carried out as follows. Phosphate-buffered (pH 7.2) D2O solutions of RB (optical densitv,=0.25 to 0.3 at 550 nm) in a 1-cm-optical-path quartz fluorescence cuvette (catalog number QA-1000; Hellma, Mullheim. Germany) were excited by 550-nm pulses generated by an integrated nanosecond neodymium-doped yttrium aluminum garnet laser system equipped with a narrow-band-width optical parametric oscillator (model NT242-1k-SH/SFG; Ekspla. Vilnius, Lithuania), which delivered pulses at a repetition rate of 1 kHz with energy of up to several hundred microjoules in the visible region. […] The near-infrared luminescence (1,270 nm) was measured perpendicularly to the excitation beam in a photon-counting mode using a thermoelectric cooled near-infrared photomultiplier tube (NIR PMT) module (model H10330-45; Hamamatsu, Japan) equipped with a 1,100-nm-cutoff filter and an additional dichroic narrow-band filter narrow-band pass (NBP), selectable from the spectral range of 1,150 to 1,355 nm (NDC Infrared Engineering Ltd., Maldon, Essex, UK). […]

Compound | killing by RB aPDI in the absence of KI (P. aeruginosa [1]) | reduction in the bioluminescence signal with 540-nm light (P. aeruginosa [2]) | killing (C. albicans; 10 μM RB plus light, no KI, either fluence (10, 20 J/cm^2)) | killing, cells centrifuged after incubation with RB (C. albicans; 10 μM RB, 10 J/cm^2, KI up to 100 mM) | killing (MRSA; 100 nM RB plus light, no KI) | killing after a spin (centrifugation) (MRSA; 100 nM RB, 10 J/cm^2) | RB concentration that produced eradication (MRSA; RB as antimicrobial PS plus light) | killing (E. coli [3]; no KI, 20 J/cm^2 540 nm) | killing (E. coli [3]; with or without 100 mM KI, 10 J/cm^2 540 nm) | killing by RB aPDI in the absence of KI (E. coli [3]; no KI) | bacteria killing by KI alone (E. coli [4]) | bacteria killing by KI alone (S. aureus) | killing of mammalian cells by KI [5] | shortening of observable lifetime of singlet oxygen-dependent luminescence ([6]; 35 mM KI, RB in D2O) | bimolecular rate constant of quenching (kq) of singlet oxygen ([6]; RB-photogenerated singlet oxygen, KI 0 to 50 mM)
O=C1OC2(c3cc(I)c(O)c(I)c3Oc3c2cc(I)c(O)c3I)c2c(Cl)c(Cl)c(Cl)c(Cl)c21 [RB, Rose bengal] | almost no killing | only a slight reduction | no killing | some minor killing after centrifugation | 1 to 2 logs | centrifugation abolished the killing | 200 nM | 2 logs | less than 1 logs | almost no killing |  |  |  |  | 
[I-].[K+] [KI, potassium iodide] |  |  |  |  |  |  |  |  |  |  | no bacteria killing was found | no bacteria killing was found | did not kill mammalian cells | more than 3 fold | 1.1*10^6 l/(m*s)

From patent US11135445B2, “Antimicrobial photodynamic inactivation procedure and system” (The General Hospital Corporation, priority 2014, dated 2021)
